Experiment [1] deals with IL-4 production. The experiment can be described thus: Test 1: inhibition of IL-4 production in human T-cell strain ATL-16T(-) stimulated with PMA (R&D Systems EIA). Type of experiment: cell-based. Conditions: ATL-16T(-) 1×10^6 cells/0.5 ml/well, 20 nM PMA, 48 hours, read-out: Inhibition rate of IL-4 production; for inhibition at 10 µM: 10^-5 M; for inhibition at 1 µM: 10^-6 M; for inhibition at 0.1 µM: 10^-7 M; for inhibition at 0.01 µM: 10^-8 M. The protocol: Test 1: Test on the inhibition of IL-4 production
Into individual wells of a 48-well microplate, the human T-cell strain ATL-16T(-) was poured at a concentration of 1×10^6 cells/0.5 ml/well (n=3), followed by the addition of a stimulator (20 nM of PMA) and a medicament at the same time. The resulting mixture was incubated in 5% CO2 at 37° C. for 48 hours. After incubation, 100 μl of the supernatant were collected and subjected to measurement by a human IL-4 EIA kit (R&D SYSTEMS, INC.). The inhibition rate was calculated according to the following formula. [formula]

For experiment [2], the system named is IL-5 production. The experiment can be described thus: Test 3: inhibition of IL-5 production in human PBMC stimulated with ConA. Format: cell-based. The following applies: 10^-6 M, 10 μg/ml ConA, 48 hours, read-out: Inhibition rate of IL-5 production. The protocol:
Test 3: Test on the inhibition of IL-5 production
The peripheral blood was collected from a normal volunteer and peripheral blood mononuclear cells (PBMC) of the human peripheral blood were separated therefrom by the specific gravity centrifugation method. They were suspended in an AIM-V medium and their cell count was adjusted. To individual wells of a 96-well incubation plate, 1×10^6 cells/ml of PBMC were poured, followed by the addition of a stimulator (10 μg/ml of ConA) and a medicament. The resulting mixture was incubated in 5% CO2 at 37° C. for 48 hours. After incubation, 50 μl of the supernatant were collected and subjected to measurement by a human IL-5 EIA kit (BIO SOURCE, INC.). The inhibition rate was calculated according to the following formula. [formula]

Molecules are shown by their SMILES. Structures can show the parent of a compound that is named as a salt.

Results on twelve molecules are retold here after US6046218A, “Pyridine derivative and medicament containing the same as an effective ingredient” (SS Pharmaceutical Co., Ltd., priority 1996, dated 2000).

In general, inhibition refers to the drop in the measured response relative to a control, in per cent.

Regarding `COc1cnc(/C=C/C(=O)c2ccccc2)cc1OCC(=O)c1ccccc1` [Ex. 47, 5-Methoxy-4-(2-oxo-2-phenylethoxy)-2-(3-oxo-3-phenyl-1-propenyl)pyridine], in experiment [1], the inhibition at 10 µM amounted to 113%, the inhibition at 1 µM turned out to be 89.6%, the inhibition at 0.1 µM worked out at 74.1% and the inhibition at 0.01 µM was determined as 58.9%. In addition, in experiment [2], the inhibition at 1 µM came to 67.2%.
On the same counts, the results for `COC(=O)CCCOc1cc(/C=C/C(=O)c2ccccc2)ncc1OC` [Ex. 16, Methyl 4-[5-methoxy-2-(3-oxo-3-phenyl-1-propenyl)-4-pyridyloxy]butanoate] are 90.1%, 82.1%, 81.6%, 76.8% and 79.4%.
As for `COC(=O)CCCOc1cnc(/C=C/C(=O)C2CCCC2)cc1OC` [Ex. 18, Methyl 4-[4-methoxy-2-(3-cyclopentyl-3-oxo-1-propenyl)-5-pyridyloxy]butanoate], in experiment [1], the inhibition at 10 µM came to 88.2%, the inhibition at 1 µM amounted to 78.3%, the inhibition at 0.1 µM is 67.8% and the inhibition at 0.01 µM was 34.8%. In addition, the inhibition at 1 µM in experiment [2] was found to be 96.9%.
As for `COCOc1cc(/C=C/C(=O)c2ccccc2)ncc1OC` [Ex. 4, 5-Methoxy-4-methoxymethyloxy-2-(3-oxo-3-phenyl-1-propenyl)pyridine], in experiment [1], the inhibition at 10 µM stood at 86.2%, the inhibition at 1 µM is 75.2%, the inhibition at 0.1 µM was found to be 67.9% and the inhibition at 0.01 µM is 57.4%. Further, the inhibition at 1 µM in experiment [2] worked out at 60.2%.
On to `COc1cnc(/C=C/C(=O)c2ccccc2)cc1OCc1ccccc1` [Ex. 3, 4-Benzyloxy-5-methoxy-2-(3-oxo-3-phenyl-1-propenyl)pyridine], for which, in experiment [1], the inhibition at 10 µM amounted to 98.9%, the inhibition at 1 µM came out at 81.1%, the inhibition at 0.1 µM is 75.9% and the inhibition at 0.01 µM was determined as 60%. Moreover, the inhibition at 1 µM in experiment [2] is 65.8%.
As for `COc1cnc(/C=C/C(=O)c2ccccc2)cc1OC(=O)c1ccccc1` [Ex. 43, 4-benzoyloxy-5-methoxy-2-(3-oxo-3-phenyl-1-propenyl)pyridine], in experiment [1], the inhibition at 10 µM is 80.8%, the inhibition at 1 µM is 72.6%, the inhibition at 0.1 µM stood at 70.3% and the inhibition at 0.01 µM is 35.5%. The inhibition at 1 µM in experiment [2] amounted to 61.4%.
Turning to `CCCCCC(O)/C=C/c1cc(OCCCCCC(=O)O)c(OC)cn1` (centres unmarked) [Ex. 35, 6-[2-(3-Hydroxy-1-octenyl)-5-methoxy-4-pyridyloxy]hexanoic acid], in experiment [1], the inhibition at 10 µM was found to be 90.3%, the inhibition at 1 µM turned out to be 89.3%, the inhibition at 0.1 µM stood at 82.5% and the inhibition at 0.01 µM is 64.3%. Moreover, in experiment [2], the inhibition at 1 µM was determined as 82.2%.
`CC(=O)Oc1cnc(/C=C/C(=O)c2ccccc2)cc1OC(C)=O` [Ex. 8, 4,5-Diacetoxy-2-(3-oxo-3-phenyl-1-propenyl)pyridine]: in experiment [1], the inhibition at 10 µM was found to be 94.3%, the inhibition at 1 µM was 88%, the inhibition at 0.1 µM was determined as 76.2% and the inhibition at 0.01 µM turned out to be 60.2%. Moreover, the inhibition at 1 µM in experiment [2] was determined as 75.3%.
Consider `CCOC(=O)CCCCCOc1cc(/C=C/C(=O)c2cc(OC)c(OC)c(OC)c2)ncc1OC` [Ex. 101, Ethyl 6-[5-methoxy-2-(3-oxo-3-(3,4,5-trimethoxyphenyl)-1-propenyl)-4-pyridyloxy]hexanoate hydrochloride], for which the inhibition at 1 µM in experiment [2] is 95.6%.
For the molecule `COc1ccc(C(=O)/C=C/c2cc(OC)c(OC)cn2)cc1` [Ex. 50, 4,5-Dimethoxy-2-[3-(4-methoxyphenyl)-3-oxo-1-propenyl]pyridine], in experiment [2], the inhibition at 1 µM amounted to 79.4%.
For the molecule `CCOC(=O)CCCCCOc1cc(/C=C/C(=O)c2ccccn2)ncc1OC` [Ex. 69, Ethyl 6-[5-methoxy-2-(3-oxo-3-(2-pyridyl)-1-propenyl]-4-pyridyloxy]hexanoate], the inhibition at 1 µM in experiment [2] is 73.1%.
With `COc1cnc(/C=C/C(=O)c2ccsc2)cc1O` [Ex. 65, 4-Hydroxy-5-methoxy-2-[3-oxo-3-(3-thienyl)-1-propenyl]pyridine], the inhibition at 1 µM in experiment [2] worked out at 77.2%.
